Measured values taken from article PMC5431342, “Discovery of an enzyme and substrate selective inhibitor of ADAM10 using an exosite-binding glycosylated substrate” (Scientific Reports, 2016).

Experiments:
ADAM10 [1] = molecular target: T1, ADAM10 (Homo sapiens, UniProt O14672); assay: ADAM10 non-glycosylated substrate assay; format: biochemical; conditions: non-glycosylated substrate
T1 construct: purchased R&D Systems 936-AD
T1 sequence (O14672 214-748): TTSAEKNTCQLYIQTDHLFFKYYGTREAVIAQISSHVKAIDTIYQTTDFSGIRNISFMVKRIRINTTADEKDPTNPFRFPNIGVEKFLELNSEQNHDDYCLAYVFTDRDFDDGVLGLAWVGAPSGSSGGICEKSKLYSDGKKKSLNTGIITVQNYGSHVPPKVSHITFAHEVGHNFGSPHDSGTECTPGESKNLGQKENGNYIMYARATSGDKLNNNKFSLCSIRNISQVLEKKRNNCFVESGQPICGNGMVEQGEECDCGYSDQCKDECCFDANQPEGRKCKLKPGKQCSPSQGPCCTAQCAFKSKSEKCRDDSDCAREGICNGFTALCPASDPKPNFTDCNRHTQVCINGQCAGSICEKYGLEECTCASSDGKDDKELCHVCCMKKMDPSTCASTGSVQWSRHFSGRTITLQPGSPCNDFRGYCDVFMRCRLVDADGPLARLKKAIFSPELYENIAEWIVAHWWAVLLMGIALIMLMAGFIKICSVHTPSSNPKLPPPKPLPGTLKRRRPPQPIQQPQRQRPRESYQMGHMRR
Excerpt: Additionally, we synthesized a non-glycosylated version, E(Edans)-[…]-K(Dabcyl), to be used as a control in the follow-up studies.

HEK293 cells = assay: Cell toxicity study (CellTiter-Glo), HEK293; format: cell-based
Experimental: (§1) Test compounds were solubilized in 100% DMSO and added to polypropylene 384 well plates (Greiner cat# 781280). 1,250 of BT474 or HEK293 cells were plated in 384-well plates in 8 µL of serum-free media (HybriCare for BT474, EMEM for HEK293). Test compounds and pharmacological assay control (lapatinib) were prepared as 10-point, 1:3 serial dilutions starting at 10 mM, then added to the cells using the pin tool mounted on Biomek NX^P. Plates were incubated for 72 h at 37 °C, 5% CO2 and 95% RH. After incubation, 8 µL of CellTiter-Glo® (Promega cat# G7570) was added to each well, and incubated for 15 min at room temperature. Luminescence was recorded using a Biotek Synergy H4 multimode microplate reader. Viability was expressed as a percentage relative to wells containing media only (0%) and wells containing cells treated with DMSO only (100%). Three parameters were calculated on a per-plate basis: (a) the signal-to-background ratio (S/B); (b) the coefficient for variation [CV; CV = (standard deviation/mean) × 100)] for all compound test wells; and (c) the Z′-factor. IC50 values were calculated by fitting normalized data to sigmoidal log vs. response equation utilizing non-linear regression analysis from GraphPad Prizm 6.

ADAM17 = molecular target: T2, ADAM17 (Homo sapiens, UniProt P78536); assay: HPLC-based ADAM17 assay using glycosylated substrate; format: biochemical
T2 construct: purchased R&D Systems 930-ADB
T2 sequence (P78536 215-824): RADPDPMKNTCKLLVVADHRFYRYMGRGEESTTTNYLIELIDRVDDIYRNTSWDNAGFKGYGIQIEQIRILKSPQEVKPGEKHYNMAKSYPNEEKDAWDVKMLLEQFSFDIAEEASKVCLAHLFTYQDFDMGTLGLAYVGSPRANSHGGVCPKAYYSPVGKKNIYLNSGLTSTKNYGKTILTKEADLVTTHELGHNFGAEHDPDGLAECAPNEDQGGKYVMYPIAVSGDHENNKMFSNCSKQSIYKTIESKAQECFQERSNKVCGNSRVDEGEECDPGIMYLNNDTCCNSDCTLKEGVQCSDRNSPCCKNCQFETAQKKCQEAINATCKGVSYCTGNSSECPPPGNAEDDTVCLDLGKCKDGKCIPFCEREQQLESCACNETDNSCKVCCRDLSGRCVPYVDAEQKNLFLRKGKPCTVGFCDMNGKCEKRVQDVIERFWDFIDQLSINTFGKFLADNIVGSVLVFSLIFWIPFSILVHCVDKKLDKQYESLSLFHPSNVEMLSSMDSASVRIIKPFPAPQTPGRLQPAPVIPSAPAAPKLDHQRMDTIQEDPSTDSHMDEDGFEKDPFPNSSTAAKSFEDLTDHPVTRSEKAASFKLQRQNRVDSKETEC
Experimental: (§2) Both assays followed the same general protocol. 30 µL of 3x enzyme solution (30 nM) in assay buffer (10 mM Hepes, 0.001% Brij-35, pH 7.5) were added to solid bottom black 384 plates. Next, 30 µL of 3x test compounds and pharmacological controls were added to corresponding wells. After 30 min incubation at RT, the reactions were started by addition of 30 µL of 3x solution of glycosylated substrate (30 µM). Reactions were incubated at RT for 2 h and then quenched with 10 µL of 500 µM EDTA. Analytical RP-HPLC was performed on a 1260 Infinity Agilent Technologies liquid chromatograph equipped with an Agilent Poroshell 120 column. Eluents were 0.1% TFA in water (A) and 0.1% TFA in acetonitrile (B). The elution gradient was 0–98% B in 15 min with a flow rate of 1.0 mL/min. Detection was at λ = 214, 360, and 460 nm.

panel of metzincins = assay: Dose response against a panel of metzincins (MMP, meprin, ADAM assays); format: biochemical; conditions: reordered powder, dilutions starting at 100 µM
Experimental: Powders for 4 compounds (CID # 3117694, 730037, 3153587, and 236330) were reordered from corresponding vendors and tested in 10-point, 1:3 serial dilutions starting at 100 µM in triplicate against ADAM10 and ADAM17 and a panel of metzincins. We examined the activity and selectivity of lead CID 3117694 using an ADAM10 and 17 HPLC-based assays using glycosylated substrate (Fig. 2A).
All assays followed the same general protocol. 5 µL of 2x enzyme solution (5 nM) in assay buffer (50 mM Tricine, 50 mM NaCl, 10 mM CaCl2, 0.05% Brij-35, pH 7.5) were added to solid bottom black 384 plates (Nunc, cat# 264705). Next, test compounds and pharmacological controls were added to corresponding wells using a 384 pin tool device (V&P Scientific, San Diego). […] Reactions were incubated at RT for 1 h, after which the fluorescence was measured using the Synergy H4 multimode microplate reader (Biotek Instruments) (λexcitation = 324 nm, λemission = 390 nm).
Both assays followed the same general protocol. […] After 30 min incubation at RT, the reactions were started by addition of 5 µL of 2x solutions of substrates (20 µM, mepin α Mca-YVADAPK-K(Dnp); and for meprin β Mca-EDEDED-K(Dnp). Reactions were incubated at RT for 1 h, after which the fluorescence was measured using the Synergy H4 multimode microplate reader (Biotek Instruments) (λexcitation = 324 nm, λemission = 390 nm).

BT474 cells = assay: Cell toxicity study (CellTiter-Glo), BT474; format: cell-based; conditions: 72 h
Experimental: as §1

ADAM10 [2] = molecular target: T1, ADAM10; assay: HPLC-based ADAM10 assay using glycosylated substrate; format: biochemical
Experimental: as §2

Structure (SMILES): COc1cccc(C(=O)NNC(=O)C(=O)Nc2ccc(C)c(Cl)c2)c1 [CID 3117694]
- IC50 (ADAM10 [1]): > 100 µM
- effect on HEK293 cell viability (HEK293 cells; 100 µM): moderate effect
- effect on viability of HEK293 cells (HEK293 cells; 72 h): did not affect viability
- inhibition of ADAM17-mediated hydrolysis of glycosylated substrate (ADAM17): not appreciably inhibited
- inhibition of 11 tested metzincins (including ADAM10 and ADAM17) (panel of metzincins): only ADAM10 was appreciably inhibited
- effect on viability of BT474 cells (BT474 cells): did not affect viability
- IC50 (ADAM10 [2]): 4.1 µM
